Data on one compound can be found in patent US11712443B2, “17α-monoesters and 17α,21-diesters of cortexolone for use in the treatment of tumors” (COSMO TECHNOLOGIES LTD., priority 2014, dated 2023).

Data set [1] deals with LNCaP. The data set can be described thus: ATP-dependent proliferation/viability assay (Cell Titer Glo), 3 days. The following applies: 3 days. Here is the method: (§1) The experiment was performed to test and to define the antitumor activity in vitro of cortexolone 17α-benzoate on LNCaP (AR+) and PC3 (AR^−), representative of Prostatic cancer cell lines with Androgen Receptor (AR) positive or negative expression, respectively. The experimental method consisted of: • 1. […] After 24 hours, 10 nM DHT (dihydrotestosterone) with or without anti-androgen compounds, or DMSO vehicle (negative control) was added to the cultures. • 3.
(§2) The experiment was performed to test and to define antitumor activity in vitro of cortexolone 17α-valerate-21-propionate (CB-03-10) on LNCaP (AR+) and PC3 (AR^−), representative of Prostatic cancer cell lines with AR positive or negative expression, respectively. The experimental method consisted of: • 1. […] After 24 hours, 10 nM DHT (dihydrotestosterone) with or without anti-androgen compounds, or DMSO vehicle (negative control) was added to the cultures. • 3.
For orientation: Cellular ATP, detected with luciferase, serves as a proxy for viable cell number.

In data set [2] the test system is PC3. Described as above. As to conditions: 3 days. On the procedure:
as §1, §2

Data set [3] concerns HT29. The data set can be described thus: MTT colorimetric assay, 72 h. The following applies: human, 72 h. The data set is classed as cell-based. Here is the method:
The experiment was performed to test and define anticancer activity in vitro of Cortexolone 17α-benzoate and cortexolone 17α-valerate-21-propionate on cell lines representatives of epithelial intestinal tumors, namely HT29. The experiment method consisted in: • 1. Monolayer HT-29 cells were plated in: 96-wells plates at the density of 2×10^4 cells/mL. The cells plated were kept at 37° C. in 5% CO2 and left to attach for 24 h. • 2. […] After 72 h of treatment, the MTT colorimetric assay was performed.
Background: Tetrazolium assays rely on reduction of a dye to a coloured formazan, in cell work by metabolically active cells.

Data set [4] has as its system LNCaP prostate cancer xenograft. Kind of data set: Human prostate cancer xenograft in nude mice, oral treatment. The data set is classed as in vivo. On the procedure:
3×10^6 LNCaP cells suspended in matrigel were subcutaneously injected (on the right flank) into 6 week old male athymic nude mice. Tumors were measured as described above. Treatment with CB-03-10 and controls compounds was initiated after the tumor had reached 50 mm3. […] Oral dosing was daily (100 mg/Kg in 200 μL/mouse) for 28 consecutive days. Results were plotted as average change in tumor volume relative to the start of treatment.
A general note: A xenograft is tissue or cells of one species grown in another, often human tumour cells in immunodeficient mice.

For data set [5], the target named is T1, Glucocorticoid Receptor (Homo sapiens, UniProt P04150).
T1 construct: endogenous in cells; host or cells: human kidney epithelial cells
T1 sequence (P04150 1-777): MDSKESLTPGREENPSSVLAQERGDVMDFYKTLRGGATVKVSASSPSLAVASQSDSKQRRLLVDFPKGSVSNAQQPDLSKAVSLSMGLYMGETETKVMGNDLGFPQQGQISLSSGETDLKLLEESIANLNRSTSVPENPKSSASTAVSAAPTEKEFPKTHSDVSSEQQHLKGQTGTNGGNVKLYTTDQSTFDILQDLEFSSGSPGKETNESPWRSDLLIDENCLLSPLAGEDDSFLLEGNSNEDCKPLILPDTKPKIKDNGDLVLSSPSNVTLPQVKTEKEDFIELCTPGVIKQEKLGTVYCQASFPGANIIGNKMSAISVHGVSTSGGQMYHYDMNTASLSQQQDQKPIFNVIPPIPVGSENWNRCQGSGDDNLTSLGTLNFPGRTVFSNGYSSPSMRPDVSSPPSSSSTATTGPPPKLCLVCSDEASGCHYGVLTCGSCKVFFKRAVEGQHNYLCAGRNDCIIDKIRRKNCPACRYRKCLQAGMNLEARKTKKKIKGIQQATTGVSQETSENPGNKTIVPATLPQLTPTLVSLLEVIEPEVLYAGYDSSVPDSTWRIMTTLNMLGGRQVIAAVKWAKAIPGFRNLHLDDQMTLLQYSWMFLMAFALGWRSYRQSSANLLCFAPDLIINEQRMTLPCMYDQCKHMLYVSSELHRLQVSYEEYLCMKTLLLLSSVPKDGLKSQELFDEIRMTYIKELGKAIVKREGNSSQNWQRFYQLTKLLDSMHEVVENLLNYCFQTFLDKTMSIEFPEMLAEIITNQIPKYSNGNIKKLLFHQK
The data set can be described thus: GR transcriptional reporter assay, antagonist mode. In kind it is cell-based. The following applies: inhibition of luminescence induced by Dexamethasone; compared to RU486; FIG. 7. On the procedure: The androgen and glucocorticoid hormones elicit divergent and often opposing effects in cells, tissues, and animals. […] CB-03-10 GR antagonist and agonist activities were tested in an in vitro assay. Briefly, human kidney epithelial cells were transfected with DNA construct containing GR binding sites linked to luminescent based reporter molecule. After 24 hours, cells were treated under antagonist or agonist modes. After an additional 24 hours, luminescence which is proportional to GR agonist transcriptional activity was quantitated.
Antagonist Assay was based on inhibition of luminescence induced by Dexamethasone (Dex).
The antagonist activity of CB-03-10 was compared to a known GR antagonist, Mifepristone (also called RU486) as shown in FIG. 7.

The test system of data set [6] is Caspase 8 and Caspase 9. The data set can be described thus: Caspase activity assay in MiaPaca2 cells. The data set is classed as cell-based. As to conditions: 20 or 50 μM, evident after 8 hours, corrected for viable cells.
Method: To better analyze the phenomenon the enzymatic activity of Caspase 8 (initiator caspase for Extrinsic Pathway) and Caspase 9 (initiator caspase for Intrinsic Pathway) and of Caspases 3 and 7 (effector caspases) were measured.
For data set [7], the system named is Caspases 8, 9 and 3/7. The data set can be described thus: Caspase activity assay in LNCaP prostate cancer cells. The following applies: 24 hours, FIG. 12. The data set is classed as cell-based. On the procedure:
After 24 hours test compounds were added to cells, Gemcitabine (a known pancreatic cancer chemotherapeutic agent) and DMSO were used as positive and negative control, respectively. After 8, 24, & 48 hours incubation with test compounds, cells were lysed in buffer containing the caspase 3/7 or 8 or 9 substrate and a stable luciferase in proprietary buffers. The lysates were transferred to white opaque plates before measuring luminescence in a Tecan S afire instrument. Parallel plates treated identically, were used to determine viable cells. All caspase activities were corrected for the number of viable cells.
Same assay was repeated using LNCaP prostate cancer cell lines (FIG. 12). […] The results are shown in FIG. 12 at 24 hours incubation when the caspase activities peaked.

Data set [8] in a line: In vitro metabolism in rat plasma. The data set is classed as in vitro ADME. The following applies: 37 C; liquid chromatography; FIG. 13. On the procedure:
To obtain some insights on the metabolism of CB-03-10 in human and rat plasma, a specific assay was designed. Briefly the compound was incubated at different time in human and rat plasma at 37 C. After incubation the samples were tested for presence of the intact compound by liquid chromatography.

Data set [9] has as its system BxPC3. As to conditions: human, 3 days.
Data set [10] concerns HT29. Kind of data set: In vitro proliferation, larger cancer cell line panel. The following applies: HT29.

With `CCCCC(=O)O[C@]1(C(=O)COC(=O)CC)CC[C@H]2[C@@H]3CCC4=CC(=O)CC[C@]4(C)[C@H]3CC[C@@]21C` [CB-03-10, cortexolone 17α-valerate-21-propionate], the IC50 in data set [1] (Homo sapiens, LNCaP, 72 h, LNCaP (AR+), 10 nM DHT, Examples 1-2 Experiment 1, sigmoidal dose response fit) was found to be 13 µM; in data set [2] (Homo sapiens, 72 h, PC3 (AR-), 10 nM DHT, Examples 1-2 Experiment 2, nonlinear regression least squares fit, additional experiments) it was 50 µM. Besides, the “Therapeutic Index = IC50 resting PBMC/IC50 cancer cell” value is 9 in data set [1] (human), 2 in data set [2] (human), 3 in [9] and 3 in data set [10] (Table IV). Further, the “Therapeutic Index = IC50 stimulated PBMC/IC50 cancer cell” value in [1] (human) amounted to 9; in data set [2] (human) it was 2; in data set [9], 3; in [10] (Table VII), 3. In [3], the “Therapeutic Index (TI), Stimulated PBMC” value turned out to be 3. Besides, the “average tumor volume, times smaller than in the vehicle group” value in data set [4] (6 weeks after treatment was stopped) is given as 3.6 times. Also, in data set [4] (oral 100 mg/Kg daily 28 days, after stop), the “prostate tumor size increase after treatment was stopped” value was determined as 5 fold. For the same compound, the “tumor volume increase relative to start of treatment” value in data set [4] (oral 100 mg/Kg daily, treatment period of 28 days, negative control 10-fold) stood at 2 fold. Moreover, the “statistical significance of tumor growth versus vehicle” value in [4] (oral gavage, FIG. 16) is listed as “statistically significantly different from day 7 up to day 60”. Besides, the GR antagonist activity entry in [5] is recorded as “potent antagonist (10 times less than RU486)”. For the same compound, the “caspase 8 and 9 activity, increase compared to control” value in [6] was not above 7 fold. The “Initiator (8 and 9) and Effector (3/7) caspase activities” value in [7] was “induced Initiator (8 and 9) and Effector (3/7) caspase activities better than Enzalutamide”. For the same compound, the “degradation in rat plasma” value in data set [8] is “degraded more rapidly in rat compared to human plasma”.

One may read the IC50 as the midpoint of a concentration-inhibition curve. High values mean lower potency, low ones higher potency.
